Converted amounts (≈) assume the structure as drawn. Where two headings read alike, the source gives them in different places. Numbered stars: 1 amine (or outer) side, 2 acyl side, 3 side chain; on linkers, the order of the positions; unused ones are H or OH. Bridge positions count the residues as written; N and C are the ends. Square brackets hold non-standard residues; d marks the D form. Peptide text beside a SMILES is read from it. * marks the point of attachment. X5 = O=C([C@@H]1C[C@@H](OP(=O)(O)O)CN1[*:1])[*:2]; Phe(3-Me) = Cc1cccc(C[C@H](N)C(=O)O)c1; NH(4-Cl-2-F-phenyl) = Fc1cc(Cl)ccc1N*; Pro(4R-Me) = C[C@H]1CN[C@H](C(=O)O)C1; Hyp = O=C(O)[C@@H]1C[C@@H](O)CN1; NH(4-Et-phenyl) = CCc1ccc(N*)cc1; aThr = C[C@H](O)[C@H](N)C(=O)O; Pip = O=C(O)[C@@H]1CCCCN1; X3 = c1cc2c(cc1N*)OCCO2; CO = O=C([*:1])[*:2]
How the values were obtained:
[1] = target: T1, Sa-ClpP (Staphylococcus aureus, UniProt Q2G036); assay: ADEP displacement fluorescence polarization assay; type: binding, S. aureus; conditions: displacement of FP probe ADEP 2591 from Sa-ClpP
T1 construct: made in house; host or cells: E. coli BL21 (DE3)
T1 sequence (Q2G036 whole entry): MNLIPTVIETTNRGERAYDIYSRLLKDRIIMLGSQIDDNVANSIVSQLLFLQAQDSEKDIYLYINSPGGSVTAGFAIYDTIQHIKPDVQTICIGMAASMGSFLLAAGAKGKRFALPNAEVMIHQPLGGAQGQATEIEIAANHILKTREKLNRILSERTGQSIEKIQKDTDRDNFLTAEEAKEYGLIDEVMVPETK
In short: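 Master mix of 15 μM Sa-ClpP and 50 nM TAMRA-labelled ADEP 2591 probe in Tris-HCl pH 8.0, 2% DMSO, was pre-equilibrated 1 h at RT, then compounds were added and incubated 120 min at RT. Polarization (ex 530, em 579 nm, mP) was normalised to 200 μM ADEP 2378 and DMSO controls and fitted by four-parameter regression, in triplicate.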

[2] = test system: MRSA NRS70; assay: Minimal inhibitory concentration, microbroth dilution; type: cell-based; conditions: Staphylococcus aureus
In short: (§1)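 Growth inhibition was scored visually after overnight aerobic culture at 37 °C in CLSI-style microdilution plates. Inocula contained about 10^5 cfu/mL, and compound concentrations descended in twofold steps from 200 μM.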

[3] = test system: S. aureus USA 300; assay: as above; type: cell-based; conditions: Staphylococcus aureus
In short: as §1

[4] = test system: E. faecails; assay: as above; type: cell-based; conditions: Enterococcus faecalis
In short: as §1

[5] = test system: S. aureus ATCC 29213; assay: as above; type: cell-based; conditions: Staphylococcus aureus
In short: as §1

[6] = Microsomal metabolic stability; type: in vitro ADME, mouse
In short: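 CD-1 mouse liver microsomes (0.6381 mg/mL protein microsomal solution, 0.1 M potassium phosphate pH 7.4 with EDTA) were incubated with compound and an NADPH-regenerating system at 37 °C, in triplicate. Acetonitrile/warfarin quench at 0, 15, 30, 60, 120 and 240 min, then LCMS. Half-life came from a first-order least-squares fit.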

[7] = test system: S. aureus ΔClpP; assay: Minimal inhibitory concentration, microbroth dilution; type: cell-based, Staphylococcus aureus; conditions: MIC; ClpP inactivated
In short: as §1

[8] = MIC, read-out: Minimal Inhibitory Concentrations (μM) MRSA NRS70
[9] = USA300, MIC, read-out: Minimal Inhibitory Concentrations (μM) S. aureus USA 300
[10] = MIC, read-out: Minimal Inhibitory Concentrations (μM) E. faecails
[11] = ATCC29213, MIC, read-out: Minimal Inhibitory Concentrations (μM) S. aureus ATCC 29213

Row | Compound | IC50 [1] [µM] | MIC [2, 8] [µM] | MIC [3, 9] [µM] | MIC [4, 10] [µM] | MIC [5, 11] [µM] | Mouse ([6]; CD-1, mouse, pH 7.4) | Minimal Inhibitory Concentrations (μM) S. aureus ΔClpP [7] [µM] | MIC ([2]; read-out: Minimal Inhibitory Concentrations (μM) MRSA NRS70, MIC) [µM] | MIC ([3]; USA300, read-out: Minimal Inhibitory Concentrations (μM) S. aureus USA 300, MIC) [µM] | MIC ([4]; read-out: Minimal Inhibitory Concentrations (μM) E. faecails, MIC) [µM] | MIC ([5]; ATCC29213, read-out: Minimal Inhibitory Concentrations (μM) S. aureus ATCC 29213, MIC) [µM] | Mouse ([6]; microsomal metabolic stability half-life, mouse liver microsomes) [h]
1 | CCc1ccc(NC(=O)N[C@@H](Cc2cccc(C)c2)C(=O)N[C@@H]2C(=O)N3C[C@H](O)C[C@H]3C(=O)N3CCCC[C@H]3C(=O)N[C@@H](C)C(=O)N3C[C@H](C)C[C@H]3C(=O)O[C@H]2C)cc1 [Compound 25, (S)-2-(3-(4-ETHYLPHENYL)UREIDO)-N-((2R,6S,8AS,14AS,16R,20S,21S,23AS)-16-HYDROXY-2,6,21-TRIMETHYL-5,8,14,19,23-PENTAOXOOCTADECAHYDRO-1H,5H,14H,19H-PYRIDO[2,1-I]DIPYRROLO[2,1-C:2′,1′-L][1]OXA[4,7,10,13]TETRAAZACYCLOHEXADECIN-20-YL)-3-(M-TOLYL)PROPANAMIDE] ({NH(4-Et-phenyl)-CO}-[Phe(3-Me)][aThr][Hyp][Pip]A[Pro(4R-Me)]; ester 2-C) | 4.76 ± 0.33 | 0.156 (≈ 0.127 µg/mL) | 0.313 (≈ 0.255 µg/mL) | 0.156 (≈ 0.127 µg/mL) | 0.156 (≈ 0.127 µg/mL) | 2.35 ± 0.27 h | >20 |  |  |  |  | 
2 | Cc1cccc(C[C@H](NC(=O)Nc2ccc(Cl)cc2F)C(=O)N[C@@H]2C(=O)N3C[C@H](OP(=O)(O)O)C[C@H]3C(=O)N3CCCC[C@H]3C(=O)N[C@@H](C)C(=O)N3C[C@H](C)C[C@H]3C(=O)O[C@H]2C)c1 [Compound 29, (2R,6S,8AS,14AS,16R,20S,21S,23AS)-20-((S)-2-(3-(4-CHLORO-2-FLUOROPHENYL)UREIDO)-3-(M-TOLYL)PROPANAMIDO)-2,6,21-TRIMETHYL-5,8,14,19,23-PENTAOXOOCTADECAHYDRO-1H,5H,14H,19H-PYRIDO[2,1-I]DIPYRROLO[2,1-C:2′,1′-L][1]OXA[4,7,10,13]TETRAAZACYCLOHEXADECIN-16-YL DIHYDROGEN PHOSPHATE] ({NH(4-Cl-2-F-phenyl)-CO}-[Phe(3-Me)][aThr][X5][Pip]A[Pro(4R-Me)]; ester 2-C) | 4.45 ± 0.45 |  |  |  |  |  | >20 | 2.5 | 10 | 20 | 5 | >4
3 | Cc1cccc(C[C@H](NC(=O)Nc2ccc3c(c2)OCCO3)C(=O)N[C@@H]2C(=O)N3C[C@H](O)C[C@H]3C(=O)N3CCCC[C@H]3C(=O)N[C@@H](C)C(=O)N3C[C@H](C)C[C@H]3C(=O)O[C@H]2C)c1 [Compound 28, (S)-2-(3-(2,3-DIHYDROBENZO[B][1,4]DIOXIN-6-YL)UREIDO)-N-((2R,6S,8AS,14AS,16R,20S,21S,23AS)-16-HYDROXY-2,6,21-TRIMETHYL-5,8,14,19,23-PENTAOXOOCTADECAHYDRO-1H,5H,14H,19H-PYRIDO[2,1-I]DIPYRROLO[2,1-C:2′,1′-L][1]OXA[4,7,10,13]TETRAAZACYCLOHEXADECIN-20-YL)-3-(M-TOLYL)PROPANAMIDE] ({X3-CO}-[Phe(3-Me)][aThr][Hyp][Pip]A[Pro(4R-Me)]; ester 2-C) | 4.86 ± 0.17 | 2.5 (≈ 2.11 µg/mL) | 2.5 (≈ 2.11 µg/mL) | 0.625 (≈ 0.529 µg/mL) | 2.5 (≈ 2.11 µg/mL) | 0.79 ± .795 h | >20 |  |  |  |  | 
4 | Cc1cccc(C[C@H](NC(=O)Nc2ccc3c(c2)OCO3)C(=O)N[C@H]2COC(=O)[C@@H]3C[C@@H](C)CN3C(=O)[C@H](C)NC(=O)[C@@H]3CCCCN3C(=O)[C@@H]3CCCN3C2=O)c1 [Compound 23, (S)-2-(3-(BENZO[D][1,3]DIOXOL-5-YL)UREIDO)-N-((2R,6S,8AS,14AS,20S,23AS)-2,6-DIMETHYL-5,8,14,19,23-PENTAOXOOCTADECAHYDRO-1H,5H,14H,19H-PYRIDO[2,1-I]DIPYRROLO[2,1-C:2′,1′-L][1]OXA[4,7,10,13]TETRAAZACYCLOHEXADECIN-20-YL)-3-(M-TOLYL)PROPANAMIDE] | 1.96 ± 0.12 | 0.625 (≈ 0.501 µg/mL) | 1.25 (≈ 1 µg/mL) | 0.625 (≈ 0.501 µg/mL) | 1.25 (≈ 1 µg/mL) | 35.8 ± 14.7 h | >20 |  |  |  |  | 
